Assay results published in patent US10272117B2, “Methods of using an activator of cereblon for neural cell expansion and the treatment of central nervous system disorders” (Celgene Corporation, priority 2014, dated 2019).

Key:
[1] = system: zebrafish embryos; assay: Immunostaining of neurons, proliferating cells, glia and serotonin-positive cells in zebrafish; assay type: in vivo; conditions: for numbers of serotonin-positive cells / numbers of radial glia cells: 54-55 hpf; for numbers of radial glia cells: Zrf-2
Procedure: Antibody staining of early neurons of zebrafish was performed by the following technique. The embryos 24 to 28 hours after fertilization were fixed at 4° C. for 12 hours in a 4% paraformaldehyde/phosphate buffer (pH 8.0). After washing four times with phosphate buffer, where each wash was performed for 15 minutes, blocking was carried out at normal temperature for one hour in 5% newborn goat serum dissolved in 0.5% Triton X-100/phosphate buffer. Primary antibody reaction was carried out using a monoclonal anti-acetylated tubulin antibody diluted at 1:1000 in the same solution at 4° C. for 12 hours. Then, after washing the embryos similarly with phosphate buffer, secondary antibody reaction was carried out using an anti-mouse antibody conjugated with Alexa Fluoro 488 (Molecular Probes) under the same conditions as those applied in the primary antibody reaction. The embryos were then washed with phosphate buffer and transparentized in 30%/50%/70% glycerol (dissolved in phosphate buffer), and then observed with a fluorescent microscope under excitation at 488 nm.
Two-days-old zebrafish were used (for glia cell staining and serotonin-producing cell staining, zebrafish 56 hours and 49 hours after fertilization were used, respectively). Zebrafish were fixed with 4% paraformaldehyde (PFA) and then washed with phosphate buffer (PBS), followed by treatment with 10 μg/ml protease K for partial digestion of the epidermis. After the digestion reaction, the zebrafish were washed with PBST (PBS+0.5% Triton X-100) for 20 minutes and then fixed with PFA again. The fixed zebrafish were washed with PBST at room temperature for one hour, followed by blocking using PBST+5% goat serum. The resulting specimens were reacted with a monoclonal anti-glia antibody (zrf-1/zrf-2) or a rabbit anti-serotonin antibody at 4° C. overnight (12 to 18 hours). Subsequently, the specimens were washed with PBST+5% goat serum for one hour at room temperature, and secondary antibody reaction was carried out by substituting the antibody for a goat anti-mouse IgG antibody (Cy-2 conjugate for glia cell staining) or a goat anti-rabbit IgG antibody (Cy-5 conjugate for serotonin-producing cell staining) at 4° C. overnight (12 to 18 hours). Subsequently, the specimens were washed with PBST at room temperature for one hour. After washing, PBST was replaced by 30%, 50%, and 70% glycerol/PBS, and the whole zebrafish were mounted on glass slides to obtain preparations. Fluorescence was observed under excitation wavelength of Cy-2 and Cy-5, and the distribution of the glia cells or the serotonin-producing cells was recorded. Glia cells were observed from the lateral side of zebrafish, while the serotonin-producing cells were photographed from the dorsal side in order to observe the distribution of the cells along the midline.
Numbers of primary neurons and proliferating cells were analyzed by immunostaining in untreated and Ikaros-knockdown zebrafish embryos at 27 hpf. FIGS. 17A and 17D show the primary neurons in the CNS of the untreated and the Ikaros-knockdown zebrafish embryos, respectively, at 27 hpf by immunostaining with anti-acetylated tubulin antibody. FIGS. 17B and 17E show the proliferating cells in the CNS of the untreated and the Ikaros-knockdown zebrafish embryos, respectively, at 27 hpf by immunostaining with anti-phospho-histone H3 antibodies. […] Global distribution of the primary neurons was normal as shown (scale bar: 50 μm).
The number of phosphorylated histone H3-positive cells was counted in a stacked focal plane of laser confocal microscope at 27 hpf. The average number of the H3-positive cells in the telencephalon, the diencephalon, and the midbrain was statistically compared between the untreated and the Ikaros-knockdown embryos (n=3 in each experiment).
The numbers of radial glial cells and matured neurons were analyzed in untreated and CRBN-overexpressing zebrafish embryos. […]

[2] = system: zebrafish; assay: Resistance to thalidomide in brain development (brain thickness to body length); assay type: in vivo
Procedure: To analyze the functional relationship between thalidomide and BRD7, brain development of BRD7-knockdown zebrafish treated with thalidomide was examined and compared with that of normal zebrafish treated with thalidomide. […] FIGS. 12A and 12B show the normal zebrafish treated with 400 μM thalidomide. FIGS. 12C and 12D show the BRD7-knockdown zebrafish treated with 400 μM thalidomide. FIGS. 12A′ and 12C′ show the brain regions of the normal zebrafish treated with 400 μM thalidomide. FIGS. 12B′ and 12D′ show the brain regions of the BRD7-knockdown zebrafish treated with 400 μM thalidomide. […] The percentages of brain thickness to body length in the normal and the BRD7-knockdown zebrafish, with or without thalidomide treatments were also measured. […] The brain size of the BRD7-knockdown larvae incubated in thalidomide is 98.8% of that of the BRD7-knockdown larvae incubated in the absence of thalidomide.

Substance | numbers of serotonin-positive cells [1] | numbers of radial glia cells [1] | brain size relative to normal larvae ([2]; in 400 μM of thalidomide, n=12) | brain development of BRD7-knockdown larvae ([2]; in thalidomide solution (400 μM)) | brain size relative to normal larvae ([2]; normal E3 medium, without thalidomide treatment) | number of the primary neurons in the CNS ([1]; 27 hpf, anti-acetylated tubulin) | number of the proliferating cells in the CNS ([1]; 27 hpf, anti-phospho-histone H3) | number of H3-positive proliferating cells in telencephalon, diencephalon and midbrain ([1]; 27 hpf, n=3)
5′-AGAGCTGTAGCTGGTTCCCCATTTC-3′ (all phosphorodiamidate morpholino (PMO)) [CRBN-knockdown, 25-mer antisense morpholino oligonucleotide (AMO) used for the CRBN gene knockdown, reference compound] | decreased | decreased | – | – | – | – | – | –
5′-TGTGTTTCTTGTGCTTTTTGCCCAT-3′ (all phosphorodiamidate morpholino (PMO)) [BRD7-knockdown, 25-mer antisense morpholino oligonucleotide (AMO) used for the BRD7 gene knockdown] | – | – | 140.0% | developed almost normally | 120.7% | – | – | –
5′-TTCCTGTGCCTCCTCAGTCTCCATC-3′ (all phosphorodiamidate morpholino (PMO)) [Ikaros-knockdown, 25-mer antisense morpholino oligonucleotide (AMO) used for the Ikaros gene knockdown] | increased | increased | – | – | – | increased | increased | increased
